Where a SMILES comes first, the peptide text is derived from it. Bridges are numbered along the chain shown (N, C = ends). Roman numbers before positions name the chains, in order. Primed or numbered codes have the meaning given here. Where no end group is shown, it is not given here. The star is where a group is joined. 5FAM = O=C1OC2(c3ccc(O)cc3Oc3cc(O)ccc32)c2ccc(C(=O)*)cc21; 5FAM″ = 5-carboxyfluorescein label
Columns and labels:
4T1 tumors = experiment: In vivo tumor homing of FAM-labeled peptides (confocal imaging); details: 200 μL of 1 mM FAM-peptide i.v.
Protocol: Mice bearing orthotopic tumors generated with 4T1 mouse breast cells were intravenously injected with the 200 μL of 1 mM fluorescamine (FAM)-conjugated CAR peptide. The circulation time was 1 hour.
Confocal images of sections of the tumor and normal organs from mice injected with the 200 μL of 1 mM FAM-tCAR peptide. The circulation time was 2 hours.
Confocal images of sections of the tumor and normal organs from mice injected with the 200 μL of 1 mM FAM-ARSKNK peptide. The circulation time was 1 hour.
Confocal images of sections of the tumor and normal organs from mice injected with the 200 μL of 1 mM FAM-KNKSRAC-CARSKNK peptide (SEQ ID NO:4). The circulation time was 1 hour.

[1] = system: monocrotaline-induced PAH lesions; experiment: Peptide homing to lungs in monocrotaline-induced PAH rats (anti-FITC immunohistochemistry); type: in vivo, rat; details: for accumulation of peptide in the PAH lungs: 2 hours after injection; for accumulation in the kidney: MCT-treated PAH rats and untreated healthy animals
Protocol: Monocrotaline (Sigma-Aldrich, St. Louis, Mo.) was dissolved in 0.3 M hydrochloride solution and neutralized with 0.3 M sodium hydroxide solution, and adjusted pH around 7.0. Adult male Sprague-Dawley rats (150-200 g, Harlan Laboratories, Indianapolis, Ind.) were administered with a single subcutaneous injection of monocrotaline solution at a dose of 60 mg/kg body weight, while control rats were administered with 0.9% saline (Bader, M. Rat models of cardiovascular diseases. Methods Mol Biol 597, 403-14 (2010)). Rats were randomly selected and studied for peptide targeting studies on 1, 3, 7, 14 or 21 days after the treatment of monocrotaline.
(§1) The following peptides were labeled with 5-carboxyfluorescein (FAM) and used for the lung targeting studies: CAR, CARSKNKDC (SEQ ID NO:147); VCAM1, CVHSPNKKCGGSK (SEQ ID NO:13); CG7C control CGGGGGGGC (SEQ ID NO:14); CAR mutant (CAR-M), CAQSNNKDC (SEQ ID NO:15). Peptides were dissolved in PBS at the concentrations of 0.5 mg/mL. Hypertensive rats were injected with peptide solution through tail vein (3.3 mg/kg). At 2 hours after the injection, rats were perfused with PBS containing 1% bovine serum albumin under the deep anesthesia and tissues were fixed by systemic perfusion with 10% buffered formalin. The organs were excised and fixed for additional 24 hours and processed for anti-fluorescein immunohistochemistry.
To determine the localization of the peptides, paraffin-embedded tissue sections were immunostained with rabbit anti-fluoroscein isothiocyanate (FITC) antibody (Invitrogen, Carlsbad, Calif.) followed by horseradish peroxidase-labeled anti-rabbit IgG secondary antibody. The peptide localization was then visualized by DAB. Sections were counter stained with hematoxylin to visualize the region of cells. An automated staining system, Discovery XT (Ventana, Tucson, Ariz.) was used for the staining. To examine the co-localization of the peptides with macrophages or alveolar type II cells, tissue sections were doubly stained with rabbit anti-FITC antibody and mouse anti-rat-CD68 antibody; EDI (Serotec, Raleigh, N.C.) or rabbit anti-Prosurfactant Protein C (proSP-C, Millipore, Temecula, Calif.), respectively. For FITC/proSP-C double staining, FITC staining was completed first. The tissues sections were then treated withcitrate buffer (pH 6.0) at 98° C. for 10 min before proceeding to proSP-C staining. Biotinylated species-specific secondary antibodies and alkaline phosphatase-labeled streptavidin (Vector Laboratories, Burlingame, Calif.) were used to visualize macrophages and alveolar type II cells with Permanent Red (Dako, Carpinteria, Calif.).
Images of stained slides were observed and captured with ECLIPSE 90i or 80i microscope with CCD camera DS-5M (Nikon Instruments, Melville, N.Y.). To quantify the targeting efficiency of the peptides to the lung, the immunostained sections were scanned by Aperio Scanscope XT and analyzed using ImageScope software (Aperio Technologies, Vista, Calif.). For the quantification of area and density of peptide staining, the Aperio Color Deconvolution tool was used to compare total peptide positive area and intensity of peptide staining in each animal. The thresholds were set empirically for strong, medium, and weak staining. The area of each level of staining was presented as percent of such area in the total cell area. The total stained area was normalized by hematoxylin stained area of same regions.
A rat model of monocrotaline (MCT)-induced pulmonary arterial hypertension was used for this study. Briefly, male Sprague-Dawley rats (150-200 g, Harlan Laboratories, IN) were administered with a single subcutaneous injection of monocrotaline at 60 mg/kg (Sigma-Aldrich, MO), while control rats administered 0.9% saline. Rats were randomly selected and studied for peptide distribution studies on 1, 3, 7, 14 or 21 days after the treatment of monocrotaline. […]

mitochondrial membranes = details: at a concentration of 10 μM; cited from earlier work
[2] = system: SU5416/hypoxia-induced PAH lesions; type: in vivo, rat
Protocol: Adult male Sprague-Dawley rats (approx. 200 g) were injected subcutaneously with SU5416 (20 mg/kg body weight; SUGEN Inc, South San Francisco, Calif.), which was suspended in carboxymethylcellulose (0.5% carboxymethylcellulose sodium, 0.9% sodium chloride, 0.4% polysorbate, 0.9% benzyl alcohol in deionized water). The rats were then exposed to chronic hypoxia in a hypobaric chamber (barometric pressure, 410 mm Hg: inspired O2 tension, 76 mm Hg) for 3 weeks followed by an additional 6 weeks of reexposure to normoxia. Rats were examined at 9 weeks after the injection of SU5416 when they develop severe occlusive pulmonary arterial lesions (Abe, K. et al. Formation of plexiform lesions in experimental severe pulmonary arterial hypertension. Circulation 121, 2747-54 (2010)).
as §1, with “CVHSPNKKCGGSK” left out, “The organs were excised and fixed for additional 24 hours and processed for anti-fluorescein immunohistochemistry.” left out

[3] = MCT-treated rats, FAM-peptide 3.3 mg/kg i.v.

KNKSRAC-CARSKNK (disulfide I:7-II:1 (inferred); not fully specified (N-terminus); also: FAM label, position not given here) [dimeric tCAR]
accumulation in tumor tissue (4T1 tumors; circulation time 1 hour): less tumor accumulation than the monomeric tCAR peptide

CARSKNK (also: FAM label, position not given here) [tCAR]
accumulation in normal tissues (4T1 tumors; circulation time 2 hours): not detectable accumulation
spreading within tumor tissue (4T1 tumors; circulation time 2 hours): wider spreading within tumor tissue than CAR

CVHSPNKKCGGSK (CVHSPNKKCGGSK-{5FAM″}; cysteine pairing not given here) [VCAM-1 binding peptide]
accumulation of peptide in the PAH lungs [1, 3]: accumulated in the PAH lungs to a similar extent to CAR
accumulation of peptide in healthy normal lung ([1]; non-MCT-treated rats, FAM-peptide 3.3 mg/kg i.v., 2 hours): a fair amount

D(KLAKLAK)2 (KLAKLAKKLAKLAK; D-amino acids; membrane perturbing molecule)
mitochondrial swelling (mitochondrial membranes): marked mitochondrial swelling

C[C@@H]1NC(=O)[C@@H](NC(=O)c2ccc3c(c2)C(=O)OC32c3ccc(O)cc3Oc3cc(O)ccc32)CSSC[C@@H](C(=O)O)NC(=O)[C@H](CC(=O)O)NC(=O)[C@H](CCCCN)NC(=O)[C@H](CC(N)=O)NC(=O)[C@H](CCCCN)NC(=O)[C@H](CO)NC(=O)[C@H](CCCNC(=N)N)NC1=O [CAR, CARSKNKDC] (5FAM-CARSKNKDC-OH; disulfide 1-9)
accumulation in the kidney [1]: accumulation in the kidney was observed
accumulation in other organs ([1]; MCT-treated rats, organs other than lung, except kidney): absent or very weak

CAQSNNKDC (cysteine pairing not given here; also: labelled with FAM, site not given here) [CAR-M]
accumulation of peptide in PAH lungs / PAH lesion ([2]; 9 weeks after SU5416, FAM-peptide 3.3 mg/kg i.v., 2 hours): only negligible signal
detection in remodeled arteries from lung tissue ([2]; peptide 1 mg/300 g rat i.v. in hemodynamic study, anti-fluorescein staining): not

ARSKNK (5FAM-ARSKNK)
accumulation in tumor tissue (4T1 tumors; circulation time 1 hour): Little ARSKNK peptide accumulated in the tumor tissue
fluorescence in the heart (4T1 tumors; circulation time 1 hour): some fluorescence was detected in the heart

CGGGGGGGC (5FAM-CGGGGGGGC; cysteine pairing not given here) [CG7C]
accumulation in the kidney [1]: also accumulated in the kidney
accumulation of peptide in the PAH lungs [1, 3]: only very weak staining
